In the supplement of paper PMC10307832:

What was measured:
Assay in all cases: relative viability (nuclei count vs DMSO), 5 days (fraction); higher = more cells survive
[1] = tested on: IA-LM
Procedure, shortened: (§1)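 Lung cancer cell lines in 1536-well plates got either a single drug or a fixed anchor-drug dose together with five library-drug doses (not always all listed) in √10 steps, by pin tool, on the day after seeding. Nuclei were counted after 5 days, and relative viability is the treated-to-vehicle ratio of nuclei counts. Values are medians of duplicate plates.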

[2] = tested on: Calu-6
Procedure, shortened: as §1

[3] = tested on: A549
Procedure, shortened: as §1

[4] = tested on: EBC-1
Procedure, shortened: as §1

[5] = tested on: NCI-H1703
Procedure, shortened: as §1

[6] = tested on: NCI-H1355
Procedure, shortened: as §1

[7] = tested on: NCI-H520
Procedure, shortened: as §1

[8] = tested on: COR-L 105
Procedure, shortened: as §1

[9] = tested on: NCI-H1666
Procedure, shortened: as §1

[10] = tested on: NCI-H1299
Procedure, shortened: as §1

[11] = tested on: LK-2
Procedure, shortened: as §1

For CC(=O)O[C@@]12CO[C@@H]1C[C@H](O)[C@@]1(C)C(=O)[C@H](O)C3=C(C)[C@@H](OC(=O)[C@H](O)[C@@H](NC(=O)OC(C)(C)C)c4ccccc4)C[C@@](O)([C@@H](OC(=O)c4ccccc4)[C@H]21)C3(C)C [Docetaxel] + CS(=O)(=O)CCNCc1ccc(-c2ccc3ncnc(Nc4ccc(OCc5cccc(F)c5)c(Cl)c4)c3c2)o1 [Lapatinib] (partner 2 µM), the relative viability ([1]; first compound 0.0002 µM) was 0.46, the relative viability ([1]; first compound 0.000632 µM) was 0.153 and the relative viability ([1]; first compound 0.002 µM) was 0.0797. The relative viability ([1]; first compound 0.006325 µM) was 0.069, the relative viability ([1]; first compound 0.02 µM) was 0.068 and the relative viability ([2]; first compound 0.0002 µM) was 0.982. The relative viability ([2]; first compound 0.000632 µM) was 0.879, the relative viability ([2]; first compound 0.002 µM) was 0.286 and the relative viability ([2]; first compound 0.006325 µM) was 0.125. The relative viability ([2]; first compound 0.02 µM) was 0.112, the relative viability ([3]; first compound 0.0002 µM) was 0.972 and the relative viability ([3]; first compound 0.002 µM) was 0.0898. The relative viability ([3]; first compound 0.006325 µM) was 0.0769, the relative viability ([3]; first compound 0.02 µM) was 0.0547 and the relative viability ([4]; first compound 0.0002 µM) was 0.201. For the same compound, the relative viability ([4]; first compound 0.000632 µM) was 0.227, the relative viability ([4]; first compound 0.002 µM) was 0.228 and the relative viability ([4]; first compound 0.006325 µM) was 0.197. It also gave a relative viability ([4]; first compound 0.02 µM) of 0.195, a relative viability ([5]; first compound 0.0002 µM) of 1.1 and a relative viability ([5]; first compound 0.000632 µM) of 0.664. For the same compound, the relative viability ([5]; first compound 0.002 µM) was 0.219, the relative viability ([5]; first compound 0.006325 µM) was 0.157 and the relative viability ([5]; first compound 0.02 µM) was 0.148. The relative viability ([6]; first compound 0.0002 µM) was 0.933, the relative viability ([6]; first compound 0.000632 µM) was 0.975 and the relative viability ([6]; first compound 0.002 µM) was 0.446. The relative viability ([6]; first compound 0.006325 µM) was 0.289, the relative viability ([6]; first compound 0.02 µM) was 0.21 and the relative viability ([7]; first compound 0.0002 µM) was 0.856. It also gave a relative viability ([7]; first compound 0.000632 µM) of 0.684, a relative viability ([7]; first compound 0.002 µM) of 0.246 and a relative viability ([7]; first compound 0.006325 µM) of 0.162. It also gave a relative viability ([7]; first compound 0.02 µM) of 0.12, a relative viability ([8]; first compound 0.0002 µM) of 0.369 and a relative viability ([8]; first compound 0.000632 µM) of 0.277. It also gave a relative viability ([8]; first compound 0.002 µM) of 0.313, a relative viability ([8]; first compound 0.006325 µM) of 0.283 and a relative viability ([8]; first compound 0.02 µM) of 0.268. For the same compound, the relative viability ([9]; first compound 0.0002 µM) was 0.462, the relative viability ([9]; first compound 0.000632 µM) was 0.461 and the relative viability ([9]; first compound 0.002 µM) was 0.299. It also gave a relative viability ([9]; first compound 0.006325 µM) of 0.197, a relative viability ([9]; first compound 0.02 µM) of 0.198 and a relative viability ([10]; first compound 0.0002 µM) of 0.935. For the same compound, the relative viability ([10]; first compound 0.000632 µM) was 0.968, the relative viability ([10]; first compound 0.002 µM) was 0.704 and the relative viability ([10]; first compound 0.006325 µM) was 0.467. The relative viability ([10]; first compound 0.02 µM) was 0.298, the relative viability ([11]; first compound 0.0002 µM) was 0.843 and the relative viability ([11]; first compound 0.000632 µM) was 0.662. The relative viability ([11]; first compound 0.002 µM) was 0.244, the relative viability ([11]; first compound 0.006325 µM) was 0.248 and the relative viability ([11]; first compound 0.02 µM) was 0.148.

Compound Cc1sc2c(c1C)C(c1ccc(Cl)cc1)=N[C@@H](CC(=O)OC(C)(C)C)c1nnc(C)n1-2 [JQ1] + CS(=O)(=O)CCNCc1ccc(-c2ccc3ncnc(Nc4ccc(OCc5cccc(F)c5)c(Cl)c4)c3c2)o1 [Lapatinib] (partner 2 µM) has a relative viability ([1]; first compound 0.04 µM) of 0.63, a relative viability ([1]; first compound 0.1265 µM) of 0.32 and a relative viability ([1]; first compound 0.4 µM) of 0.123. It also gave a relative viability ([1]; first compound 1.265 µM) of 0.0937, a relative viability ([1]; first compound 4 µM) of 0.116 and a relative viability ([2]; first compound 0.04 µM) of 1.11. The relative viability ([2]; first compound 0.1265 µM) was 0.9, the relative viability ([2]; first compound 0.4 µM) was 0.999 and the relative viability ([2]; first compound 1.265 µM) was 0.598. For the same compound, the relative viability ([2]; first compound 4 µM) was 0.564, the relative viability ([3]; first compound 0.04 µM) was 0.923 and the relative viability ([3]; first compound 0.1265 µM) was 0.902. For the same compound, the relative viability ([3]; first compound 0.4 µM) was 1.04, the relative viability ([3]; first compound 1.265 µM) was 0.553 and the relative viability ([3]; first compound 4 µM) was 0.358. The relative viability ([4]; first compound 0.04 µM) was 0.205, the relative viability ([4]; first compound 0.1265 µM) was 0.208 and the relative viability ([4]; first compound 0.4 µM) was 0.172. The relative viability ([4]; first compound 1.265 µM) was 0.152, the relative viability ([4]; first compound 4 µM) was 0.148 and the relative viability ([5]; first compound 0.04 µM) was 1.07. It also gave a relative viability ([5]; first compound 0.1265 µM) of 0.764, a relative viability ([5]; first compound 0.4 µM) of 1.2 and a relative viability ([5]; first compound 1.265 µM) of 0.47. It also gave a relative viability ([5]; first compound 4 µM) of 0.432, a relative viability ([6]; first compound 0.04 µM) of 0.967 and a relative viability ([6]; first compound 0.1265 µM) of 0.973. For the same compound, the relative viability ([6]; first compound 0.4 µM) was 0.956, the relative viability ([6]; first compound 1.265 µM) was 0.765 and the relative viability ([6]; first compound 4 µM) was 0.596. The relative viability ([7]; first compound 0.04 µM) was 0.874, the relative viability ([7]; first compound 0.1265 µM) was 0.895 and the relative viability ([7]; first compound 0.4 µM) was 0.716. The relative viability ([7]; first compound 1.265 µM) was 0.264, the relative viability ([7]; first compound 4 µM) was 0.243 and the relative viability ([8]; first compound 0.04 µM) was 0.291. It also gave a relative viability ([8]; first compound 0.1265 µM) of 0.279, a relative viability ([8]; first compound 0.4 µM) of 0.323 and a relative viability ([8]; first compound 1.265 µM) of 0.346. The relative viability ([8]; first compound 4 µM) was 0.361, the relative viability ([9]; first compound 0.04 µM) was 0.697 and the relative viability ([9]; first compound 0.1265 µM) was 0.476. The relative viability ([9]; first compound 0.4 µM) was 0.379, the relative viability ([9]; first compound 1.265 µM) was 0.278 and the relative viability ([9]; first compound 4 µM) was 0.288. For the same compound, the relative viability ([10]; first compound 0.04 µM) was 0.975, the relative viability ([10]; first compound 0.1265 µM) was 0.802 and the relative viability ([10]; first compound 0.4 µM) was 0.837. The relative viability ([10]; first compound 1.265 µM) was 0.391, the relative viability ([10]; first compound 4 µM) was 0.316 and the relative viability ([11]; first compound 0.04 µM) was 0.886. It also gave a relative viability ([11]; first compound 0.1265 µM) of 0.896, a relative viability ([11]; first compound 0.4 µM) of 0.456 and a relative viability ([11]; first compound 1.265 µM) of 0.177. The relative viability ([11]; first compound 4 µM) was 0.286.
